Results as given in US12138272B2, “Methods and compositions for treating amyotrophic lateral sclerosis” (Amylyx Pharmaceuticals, Inc., priority 2022, dated 2024).
Values after ≈ are worked out from the molar mass of the structure shown. “Also recorded” adds a separate entry of the source. Marks after values point to notes of the source that are not given here.

What was measured:
[1] = biological target: T1, BSEP (Homo sapiens, UniProt O95342); test: in vitro
[2] = Solubility in stock solvent and assay buffers
[3] = biological target: T1, BSEP; test: Inhibition of 3H-taurocholic acid uptake by BSEP membrane vesicles (inhibitor assessment); details: for inhibitor of BSEP (conclusion in words): criterion >25% concentration-dependent inhibition of probe substrate uptake; for ATP-Dependent Uptake Activity of 3H-taurocholic acid / Signal-to-Noise Ratio / Uptake Activity of 3H-taurocholic acid, Mg-AMP / Uptake Activity of 3H-taurocholic acid, Mg-ATP: 3H-taurocholic acid 1 μM
[4] = biological target: T1, BSEP; test: ATP-dependent uptake of test article by BSEP-transfected Sf9 membrane vesicles (substrate assessment); details: for remaining BSEP activity after cyclosporine A treatment: test article 1 and 10 μM + cyclosporine A 20 μM; for substrate of BSEP (conclusion in words): criteria ≥2-fold ATP-dependent uptake and >50% inhibition by selective inhibitor; for inhibition of test article uptake by cyclosporine A: cyclosporine A 20 μM
[5] = assay buffers, aqueous buffer, kinetic from dmso stock
[6] = methanol, organic solvent or mixture
[7] = test article 1 μM + cyclosporine 20 μM
[8] = test article 10 μM + cyclosporine 20 μM
[9] = test article 10 μM, listed as UA

T1 sequence (O95342 whole entry): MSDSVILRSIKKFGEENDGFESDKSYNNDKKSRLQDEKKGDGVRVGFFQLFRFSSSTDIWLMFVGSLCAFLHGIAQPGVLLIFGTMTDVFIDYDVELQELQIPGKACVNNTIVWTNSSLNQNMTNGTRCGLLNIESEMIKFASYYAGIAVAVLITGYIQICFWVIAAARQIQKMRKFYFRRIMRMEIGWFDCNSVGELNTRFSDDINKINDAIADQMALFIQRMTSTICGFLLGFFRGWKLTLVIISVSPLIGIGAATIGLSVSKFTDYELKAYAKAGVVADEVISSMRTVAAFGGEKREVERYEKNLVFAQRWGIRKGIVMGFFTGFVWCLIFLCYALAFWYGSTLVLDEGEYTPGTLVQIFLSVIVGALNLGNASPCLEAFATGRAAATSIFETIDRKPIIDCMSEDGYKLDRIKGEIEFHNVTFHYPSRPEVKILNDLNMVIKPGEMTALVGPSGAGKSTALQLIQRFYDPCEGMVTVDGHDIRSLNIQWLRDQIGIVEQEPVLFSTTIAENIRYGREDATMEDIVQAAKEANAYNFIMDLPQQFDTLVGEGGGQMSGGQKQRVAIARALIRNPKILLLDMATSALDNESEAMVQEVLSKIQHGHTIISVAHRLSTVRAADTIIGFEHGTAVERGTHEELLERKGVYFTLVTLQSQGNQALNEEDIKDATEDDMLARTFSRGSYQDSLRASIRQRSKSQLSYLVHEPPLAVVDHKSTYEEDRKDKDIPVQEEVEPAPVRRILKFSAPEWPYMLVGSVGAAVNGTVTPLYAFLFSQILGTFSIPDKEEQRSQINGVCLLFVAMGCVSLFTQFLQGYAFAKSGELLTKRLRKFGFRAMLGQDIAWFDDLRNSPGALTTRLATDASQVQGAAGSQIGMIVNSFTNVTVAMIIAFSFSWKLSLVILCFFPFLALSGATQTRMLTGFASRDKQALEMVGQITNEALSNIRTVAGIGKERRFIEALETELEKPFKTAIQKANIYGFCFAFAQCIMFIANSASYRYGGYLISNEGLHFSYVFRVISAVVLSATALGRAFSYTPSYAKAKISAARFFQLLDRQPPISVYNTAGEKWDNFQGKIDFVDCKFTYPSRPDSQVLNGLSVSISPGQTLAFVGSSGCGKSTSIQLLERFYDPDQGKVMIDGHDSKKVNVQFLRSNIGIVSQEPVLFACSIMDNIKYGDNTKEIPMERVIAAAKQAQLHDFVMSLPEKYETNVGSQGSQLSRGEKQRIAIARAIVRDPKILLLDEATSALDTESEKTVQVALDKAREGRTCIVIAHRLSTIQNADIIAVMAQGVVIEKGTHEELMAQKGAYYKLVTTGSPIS

Compound	potency estimated from few doses at 30 min [1] [µM]	solubility [2, 5] [mM]	solubility [2, 6] [mM]	inhibitor of BSEP (conclusion in words) [3]	ATP-Dependent Uptake Activity of test article ([4]; test article 1 μM)	Uptake Activity of test article, Mg-AMP ([4]; test article 1 μM)	Uptake Activity of test article, Mg-ATP ([4]; test article 1 μM)	Uptake Activity of test article, Mg-AMP [4, 7]	Uptake Activity of test article, Mg-ATP [4, 7]	ATP-Dependent Uptake Activity of test article ([4]; test article 10 μM) [pmol/minute/mg protein]	Uptake Activity of test article, Mg-AMP ([4]; test article 10 μM)	Uptake Activity of test article, Mg-ATP ([4]; test article 10 μM)	ATP-Dependent Uptake Activity of test article [4, 8]	Uptake Activity of test article, Mg-AMP [4, 8]	Uptake Activity of test article, Mg-ATP [4, 8]	ATP-dependent BSEP uptake activity relative to AMP uptake ([4]; test article 1 and 10 μM) [fold]	remaining BSEP activity after cyclosporine A treatment [4]	substrate of BSEP (conclusion in words) ([4]; test article 1 and 10 μM)	inhibition of test article uptake by cyclosporine A ([4]; test article 1 and 10 μM)	activity at 30 min, 50 μM [1] [%]	further results
C[C@H](CCC(=O)NCC(=O)O)[C@H]1CC[C@H]2[C@@H]3[C@@H](O)C[C@@H]4C[C@H](O)CC[C@]4(C)[C@H]3CC[C@]12C [Glycoursodeoxycholic acid]	< 10	0.1 (≈ 45 µg/mL)	50 (≈ 22500 µg/mL)	strongly inhibited; also recorded: inhibited	11.2 pmol/minute/mg protein	BLQ	11.2 pmol/minute/mg protein	BLQ	BLQ	14.2	BLQ	14.2 pmol/minute/mg protein	0.00^b pmol/minute/mg protein	6.93 pmol/minute/mg protein	BLQ	> 2	No remaining BSEP activity	a substrate of BSEP transporters	inhibited by cyclosporine A	–	activity at 30 min, 10 μM [1]: 48.3%; activity at 30 min, 100 μM [1]: 10.4%; inhibitor of BSEP (conclusion in words) ([3]; listed as glycoursodeoxycholic acid): inhibitors of BSEP; ATP-Dependent Uptake Activity of 3H-taurocholic acid ([3]; inhibitor 10 μM): 8.56 pmol/minute/mg protein; Signal-to-Noise Ratio ([3]; inhibitor 10 μM): 11.9; Uptake Activity of 3H-taurocholic acid, Mg-AMP ([3]; inhibitor 10 μM): 0.788 pmol/minute/mg protein; Uptake Activity of 3H-taurocholic acid, Mg-ATP ([3]; inhibitor 10 μM): 9.35 pmol/minute/mg protein; ATP-Dependent Uptake Activity of 3H-taurocholic acid ([3]; inhibitor 100 μM): 1.84 pmol/minute/mg protein; Signal-to-Noise Ratio ([3]; inhibitor 100 μM): 2.89; Uptake Activity of 3H-taurocholic acid, Mg-AMP ([3]; inhibitor 100 μM): 0.974 pmol/minute/mg protein; Uptake Activity of 3H-taurocholic acid, Mg-ATP ([3]; inhibitor 100 μM): 2.81 pmol/minute/mg protein; substrate of BSEP (conclusion in words) ([4]; test article 1 and 10 μM, listed as glycoursodeoxycholic acid): a substrate of BSEP
O=C(O)CCCc1ccccc1 [Sodium phenylbutyrate]	–	0.25	50	did not meet the criteria for identification as an inhibitor; also recorded: did not inhibit	–	BLQ	BLQ	–	–	–	–	–	–	BLQ	BLQ	–	–	not a substrate of BSEP	–	–	activity at 30 min, 25 μM [1]: 77.2%; activity at 30 min, 250 μM [1]: 82.4%; ATP-Dependent Uptake Activity of 3H-taurocholic acid ([3]; inhibitor 25 μM): 19.3 pmol/minute/mg protein; Signal-to-Noise Ratio ([3]; inhibitor 25 μM): 35.9; Uptake Activity of 3H-taurocholic acid, Mg-AMP ([3]; inhibitor 25 μM): 0.554 pmol/minute/mg protein; Uptake Activity of 3H-taurocholic acid, Mg-ATP ([3]; inhibitor 25 μM): 19.9 pmol/minute/mg protein; ATP-Dependent Uptake Activity of 3H-taurocholic acid ([3]; inhibitor 250 μM): 20.6 pmol/minute/mg protein; Signal-to-Noise Ratio ([3]; inhibitor 250 μM): 31.6; Uptake Activity of 3H-taurocholic acid, Mg-AMP ([3]; inhibitor 250 μM): 0.673 pmol/minute/mg protein; Uptake Activity of 3H-taurocholic acid, Mg-ATP ([3]; inhibitor 250 μM): 21.3 pmol/minute/mg protein; uptake of test article by BSEP vesicles ([4]; test article 1 and 10 μM): not detected; substrate of BSEP (conclusion in words) ([4]; test article 1 and 10 μM, listed as sodium phenylbutyrate): not identified as a substrate
C[C@H](CCC(=O)NCCS(=O)(=O)O)[C@H]1CC[C@H]2[C@@H]3[C@@H](O)C[C@@H]4C[C@H](O)CC[C@]4(C)[C@H]3CC[C@]12C [Tauroursodeoxycholic acid]	< 5	0.05 (≈ 25 µg/mL)	10 (≈ 5000 µg/mL)	strongly inhibited; also recorded: inhibited	14.4 pmol/minute/mg protein	4.90^c pmol/minute/mg protein	19.3^b pmol/minute/mg protein	BLQ	BLQ	22.4	2.33 pmol/minute/mg protein	24.7 pmol/minute/mg protein	2.81 pmol/minute/mg protein	3.98 pmol/minute/mg protein	6.79 pmol/minute/mg protein	> 2	≤ 12.6%	a substrate of BSEP transporters	inhibited by cyclosporine A	5.14	activity at 30 min, 5 μM [1]: 46.2%; inhibitor of BSEP (conclusion in words) ([3]; listed as TURSO): inhibitors of BSEP; ATP-Dependent Uptake Activity of 3H-taurocholic acid ([3]; inhibitor 5 μM): 6.71 pmol/minute/mg protein; Signal-to-Noise Ratio ([3]; inhibitor 5 μM): 10.1^b; Uptake Activity of 3H-taurocholic acid, Mg-AMP ([3]; inhibitor 5 μM): 0.737 pmol/minute/mg protein; Uptake Activity of 3H-taurocholic acid, Mg-ATP ([3]; inhibitor 5 μM): 7.45^b pmol/minute/mg protein; ATP-Dependent Uptake Activity of 3H-taurocholic acid ([3]; inhibitor 50 μM): 0.747 pmol/minute/mg protein; Signal-to-Noise Ratio ([3]; inhibitor 50 μM): 2.34; Uptake Activity of 3H-taurocholic acid, Mg-AMP ([3]; inhibitor 50 μM): 0.556 pmol/minute/mg protein; Uptake Activity of 3H-taurocholic acid, Mg-ATP ([3]; inhibitor 50 μM): 1.30 pmol/minute/mg protein; Signal-to-Noise Ratio ([4]; test article 1 μM): 3.94; Signal-to-Noise Ratio ([4]; test article 10 μM): 10.6; Signal-to-Noise Ratio [4, 8]: 1.71; substrate of BSEP (conclusion in words) ([4]; test article 1 and 10 μM, listed as tauroursodeoxycholic acid): a substrate of BSEP
C[C@H](CCC(=O)O)[C@H]1CC[C@H]2[C@@H]3[C@@H](O)C[C@@H]4C[C@H](O)CC[C@]4(C)[C@H]3CC[C@]12C [Ursodeoxycholic acid]	< 500	0.5 (≈ 196 µg/mL)	100 (≈ 39300 µg/mL)	inhibited uptake of the probe substrate	could not be detected	BLQ	BLQ	BLQ	BLQ	0.792	3.08^b pmol/minute/mg protein	3.87^b pmol/minute/mg protein	–	BLQ	5.61^b pmol/minute/mg protein	< 2	–	not a substrate	–	64	IC50 at 30 min [1]: < 500 µM; activity at 30 min, 500 μM [1]: 4.5%; inhibitor of BSEP (conclusion in words) ([3]; listed as ursodeoxycholic acid): inhibitors of BSEP; ATP-Dependent Uptake Activity of 3H-taurocholic acid ([3]; inhibitor 50 μM): 6.04 pmol/minute/mg protein; Signal-to-Noise Ratio ([3]; inhibitor 50 μM): 9.66; Uptake Activity of 3H-taurocholic acid, Mg-AMP ([3]; inhibitor 50 μM): 0.697 pmol/minute/mg protein; Uptake Activity of 3H-taurocholic acid, Mg-ATP ([3]; inhibitor 50 μM): 6.73 pmol/minute/mg protein; ATP-Dependent Uptake Activity of 3H-taurocholic acid ([3]; inhibitor 500 μM): 0.425 pmol/minute/mg protein; Signal-to-Noise Ratio ([3]; inhibitor 500 μM): 1.95; Uptake Activity of 3H-taurocholic acid, Mg-AMP ([3]; inhibitor 500 μM): 0.449 pmol/minute/mg protein; Uptake Activity of 3H-taurocholic acid, Mg-ATP ([3]; inhibitor 500 μM): 0.873 pmol/minute/mg protein; Signal-to-Noise Ratio ([4]; test article 10 μM): 1.26; ATP-Dependent Uptake Activity of test article [4, 9]: 0.792^b pmol/minute/mg protein; Signal-to-Noise Ratio [4, 9]: 1.26^b; substrate of BSEP (conclusion in words) ([4]; test article 1 and 10 μM, listed as ursodeoxycholic acid): not a substrate of BSEP
